Data published in PMC5613243 (Chemical Science, 2017).

Molecular target: T1, XiaK (Streptomyces sp. SCSIO 02999, UniProt I3VFC1)
T1 sequence (I3VFC1 1-596): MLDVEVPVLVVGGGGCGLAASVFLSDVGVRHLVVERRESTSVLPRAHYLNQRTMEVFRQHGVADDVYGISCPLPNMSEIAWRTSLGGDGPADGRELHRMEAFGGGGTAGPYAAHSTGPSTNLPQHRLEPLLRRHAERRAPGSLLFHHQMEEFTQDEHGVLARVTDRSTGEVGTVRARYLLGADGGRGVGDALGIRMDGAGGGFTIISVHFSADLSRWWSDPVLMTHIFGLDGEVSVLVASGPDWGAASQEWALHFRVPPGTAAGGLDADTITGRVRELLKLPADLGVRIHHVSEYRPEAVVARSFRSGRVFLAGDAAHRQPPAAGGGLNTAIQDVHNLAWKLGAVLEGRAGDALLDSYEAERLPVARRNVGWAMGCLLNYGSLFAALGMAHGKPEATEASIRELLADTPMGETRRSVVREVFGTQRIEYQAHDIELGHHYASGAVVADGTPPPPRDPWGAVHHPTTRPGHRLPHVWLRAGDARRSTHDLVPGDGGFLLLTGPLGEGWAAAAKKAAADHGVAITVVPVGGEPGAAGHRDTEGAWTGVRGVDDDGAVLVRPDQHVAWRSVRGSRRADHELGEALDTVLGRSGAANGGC
Assay: release of bound flavin by heat denaturation of purified protein
Assay type: binding
Conditions: noncovalently bound, co-purified cofactor

## Cc1cc2nc3c(=O)[nH]c(=O)nc-3n(C[C@H](O)[C@H](O)[C@H](O)COP(=O)(O)OP(=O)(O)OC[C@H]3O[C@@H](n4cnc5c(N)ncnc54)[C@H](O)[C@@H]3O)c2cc1C [FAD]
  release of bound flavin by heat denaturation of purified protein: released the noncovalently-bound flavin adenosine dinucleotide (FAD) cofactor upon heat denaturation
